# Test results taken from patent US20240277658A1, “NLRP3 ACTIVATORS FOR USE IN THE TREATMENT OF INFECTIOUS DISEASES OR CANCER BY ACTIVATING NLRP3 INFLAMMASOME” (ALBERT-LUDWIGS-UNIVERSITÄT FREIBURG, priority 2020, published 2024).
# “And” between values parts separate entries of the source, which are not always exact repeats. Equal entries are not always repeated. Where two headings read alike, the source gives them in different places.
# What was measured:
# [1] = system: BMDCs; test: LDH release (lytic cell death, pyroptosis) from LPS-primed BMDCs; format: cell-based, mouse; details: for cytotoxicity at 18.75 µM / cytotoxicity at 37.5 µM / cytotoxicity at 75 µM / cytotoxicity at 50 µM / cytotoxicity at 25 µM / cytotoxicity at 100 µM: Mus musculus, BMDC; for Average (% positive control): LDH release
# How it was run: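 Mouse BMDCs (7-9 days differentiated, GM-CSF) primed with 50 ng ml^−1 E. coli K12 LPS for 3 hours, then exposed 3 hours to compounds (50 μM unless indicated) or activators (nigericin 5 μM; R837, CL097 100 μM). Lytic death measured as LDH release by colorimetric assay, triplicate wells.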
# [2] = biological target: T1, NLRP3 inflammasome (Mus musculus, UniProt Q8R4B8); test: IL-1β release from LPS-primed BMDCs (ELISA) as readout of NLRP3 inflammasome activation; format: cell-based
# T1 construct: endogenous in cells; host or cells: primary mouse bone marrow-derived dendritic cells (BMDCs), LPS-primed
# T1 sequence (Q8R4B8 whole entry): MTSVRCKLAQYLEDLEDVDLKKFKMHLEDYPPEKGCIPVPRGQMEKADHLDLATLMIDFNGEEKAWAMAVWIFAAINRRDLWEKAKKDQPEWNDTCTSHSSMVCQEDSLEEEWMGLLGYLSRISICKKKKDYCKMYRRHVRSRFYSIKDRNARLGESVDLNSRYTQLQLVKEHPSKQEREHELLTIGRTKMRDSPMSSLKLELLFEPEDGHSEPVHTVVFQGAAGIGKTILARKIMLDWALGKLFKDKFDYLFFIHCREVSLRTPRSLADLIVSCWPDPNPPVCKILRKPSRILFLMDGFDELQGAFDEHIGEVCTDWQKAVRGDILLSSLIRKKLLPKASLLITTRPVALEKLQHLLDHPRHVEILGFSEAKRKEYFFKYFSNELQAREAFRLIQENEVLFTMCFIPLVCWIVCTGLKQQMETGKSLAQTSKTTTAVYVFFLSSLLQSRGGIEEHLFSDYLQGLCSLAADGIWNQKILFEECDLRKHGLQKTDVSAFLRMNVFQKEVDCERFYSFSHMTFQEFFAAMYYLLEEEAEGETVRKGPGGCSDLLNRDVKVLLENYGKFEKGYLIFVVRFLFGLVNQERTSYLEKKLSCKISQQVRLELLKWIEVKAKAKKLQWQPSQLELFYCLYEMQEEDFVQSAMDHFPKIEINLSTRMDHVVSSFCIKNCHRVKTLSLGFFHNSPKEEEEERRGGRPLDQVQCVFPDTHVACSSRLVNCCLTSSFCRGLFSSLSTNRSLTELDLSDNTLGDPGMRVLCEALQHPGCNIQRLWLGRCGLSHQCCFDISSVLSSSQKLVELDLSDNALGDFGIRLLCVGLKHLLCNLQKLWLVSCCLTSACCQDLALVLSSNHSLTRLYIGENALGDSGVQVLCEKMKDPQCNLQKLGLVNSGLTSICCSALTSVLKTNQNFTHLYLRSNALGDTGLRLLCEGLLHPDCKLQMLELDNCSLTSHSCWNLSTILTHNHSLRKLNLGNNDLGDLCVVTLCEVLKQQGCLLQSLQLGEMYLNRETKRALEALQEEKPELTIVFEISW
# How it was run: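 NLRP3 inflammasome activation was read out as IL-1β released into the supernatant, measured by ELISA. Murine BMDCs were primed with LPS (50 ng ml^−1, 3 hours), then incubated with compounds for 3 hours, with each condition run in three technical replicates. Nigericin at 5 μM acted as the positive control activator, and IL-1β release was also expressed as a percentage of that control.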
# [3] = compound 50 μM, positive control nigericin 5 μM
# [4] = compound 50 μM, LPS-primed BMDCs, read-out: Average LDH release (% of max.)
# [5] = single replicates, compound 50 μM, LPS-primed BMDCs, read-out: LDH release (% of max.)
# [6] = IL-1β release, compound 50 μM, positive control nigericin 5 μM
# [7] = compound 50 μM, LPS-primed BMDCs
# [8] = single replicates, compound 50 μM, LPS-primed BMDCs
compound,measurement,setting,value
"Cc1c(F)cccc1CN1CCCC(Cc2nc(-c3ccc(NC(=O)Nc4ccccc4)cc3)no2)C1 (stereo not drawn) [PM16, 1-(4-(5-((1-(3-fluoro-2-methylbenzyl)piperidin-3-yl)methyl)-1,2,4-oxadiazol-3-yl)phenyl)-3-phenylurea]",cytotoxicity at 18.75 µM,"[1]; section 1.4, 18.75 μM, read-out: Average LDH release (% of max.)",72.8%
same,cytotoxicity at 37.5 µM,"[1]; section 1.4, 37.5 μM, read-out: Average LDH release (% of max.)",90%
same,cytotoxicity at 75 µM,"[1]; section 1.4, 75 μM, read-out: Average LDH release (% of max.)",97.5%
same,cytotoxicity at 18.75 µM,"[1]; section 1.4, single replicates, 18.75 μM, read-out: LDH release (% of max.)",72%
same,cytotoxicity at 37.5 µM,"[1]; section 1.4, single replicates, 37.5 μM, read-out: LDH release (% of max.)",89%
same,cytotoxicity at 75 µM,"[1]; section 1.4, single replicates, 75 μM, read-out: LDH release (% of max.)",100%
same,Average (% positive control),"[1]; section 1.4, 18.75 μM, positive control EN22 18.75 μM",102.052 % positive control
same,Average (% positive control),"[1]; section 1.4, 37.5 μM, positive control EN22 18.75 μM",126.179 % positive control
same,Average (% positive control),"[1]; section 1.4, 75 μM, positive control EN22 18.75 μM",136.598 % positive control
same,Average IL-1β,[2]; 18.75 μM,0.777 ng/mL
same,IL-1β,"[2]; 18.75 μM, individual replicate values",0.764 ng/mL and 0.830 ng/mL and 0.736 ng/mL
same,Average IL-1β,[2]; 37.5 μM,0.846 ng/mL
same,IL-1β,"[2]; 37.5 μM, individual replicate values",0.895 ng/mL and 0.795 ng/mL and 0.848 ng/mL
same,Average IL-1β,[2]; 75 μM,0.890 ng/mL
same,IL-1β,"[2]; 75 μM, individual replicate values",0.876 ng/mL and 0.848 ng/mL and 0.948 ng/mL
same,Average (% positive control),"[2]; IL-1β, 18.75 μM, positive control EN22 18.75 μM",12.288 % positive control
same,Average (% positive control),"[2]; IL-1β, 37.5 μM, positive control EN22 18.75 μM",13.380 % positive control
same,Average (% positive control),"[2]; IL-1β, 75 μM, positive control EN22 18.75 μM",14.083 % positive control
"O=C(Nc1ccccc1)Nc1ccc(NC(=O)C2CCCC2)cc1 [L01.104, N-{4-[(phenylcarbamo-yl)amino]phenyl}cyclo-pentanecarboxamide]",Average (% positive control),[1]; [3],24.873 % positive control
same,cytotoxicity at 50 µM,[1]; [4],18.2%
same,cytotoxicity at 50 µM,[1]; [5],17.2%
same,Average (% positive control),[2]; [6],16.230 % positive control
same,Average IL-1β,[2]; [7],1.163 ng/mL
same,IL-1β,[2]; [8],1.103 ng/mL and 1.142 ng/mL and 1.246 ng/mL
"O=C(Nc1ccccc1)Nc1cccc(N2CCOC2=O)c1 [L01.045, 1-[3-(2-oxo-1,3-oxazol-idin-3-yl)phenyl]-3-phenylurea]",Average (% positive control),[1]; [3],7.094 % positive control
same,cytotoxicity at 50 µM,[1]; [4],5.19%
same,cytotoxicity at 50 µM,[1]; [5],5.98%
same,Average (% positive control),[2]; [6],1.568 % positive control
same,Average IL-1β,[2]; [7],0.112 ng/mL
same,IL-1β,[2]; [8],0.103 ng/mL and 0.116 ng/mL and 0.118 ng/mL
"O=C1CN(c2ccccc2)C(=O)N1Cc1nc(-c2ccco2)no1 [L01.033, 3-{[3-(furan-2-yl)-1,2,4-oxadiazol-5-yl]methyl}-1-phenylimidazolidine-2,4-dione]",Average (% positive control),[1]; [3],11.108 % positive control
same,cytotoxicity at 50 µM,[1]; [4],8.13%
same,cytotoxicity at 50 µM,[1]; [5],8%
same,Average (% positive control),[2]; [6],2.698 % positive control
same,Average IL-1β,[2]; [7],0.193 ng/mL
same,IL-1β,[2]; [8],0.197 ng/ml (2×) and 0.186 ng/ml
"O=C(NCc1ccccc1)Nc1ccc2ncccc2c1 [EN11-16, 1-benzyl-3-(quinolin-6-yl)urea]",Average (% positive control),"[1]; 25 μM, positive control EN22 25 μM",15.222 % positive control
same,Average (% positive control),"[1]; 50 μM, positive control EN22 25 μM",16.245 % positive control
same,Average (% positive control),"[1]; 100 μM, positive control EN22 25 μM",24.607 % positive control
same,cytotoxicity at 25 µM,"[1]; 25 μM, EN11 series table, read-out: Average LDH release (% of max.)",7.74%
same,cytotoxicity at 25 µM,"[1]; 25 μM, individual replicate values, EN11 series table, read-out: LDH release (% of max.)",7.87%
same,cytotoxicity at 50 µM,"[1]; 50 μM, EN11 series table, read-out: Average LDH release (% of max.)",8.26%
same,cytotoxicity at 50 µM,"[1]; 50 μM, individual replicate values, EN11 series table, read-out: LDH release (% of max.)",8.33%
same,cytotoxicity at 100 µM,"[1]; 100 μM, individual replicate values, read-out: LDH release (% of max.)",14.2%
same,cytotoxicity at 100 µM,"[1]; 100 μM, read-out: Average LDH release (% of max.)",12.5%
same,Average IL-1β,"[2]; 25 μM, EN11 series table",0.008 ng/mL
same,IL-1β,"[2]; 25 μM, individual replicate values, EN11 series table",0.010 ng/mL and 0.014 ng/mL and 0.000 ng/mL
same,Average IL-1β,"[2]; 50 μM, EN11 series table",0.060 ng/mL
same,IL-1β,"[2]; 50 μM, individual replicate values, EN11 series table",0.068 ng/mL and 0.054 ng/mL and 0.058 ng/mL
same,Average IL-1β,[2]; 100 μM,0.325 ng/mL
same,IL-1β,"[2]; 100 μM, individual replicate values",0.334 ng/mL and 0.324 ng/mL and 0.315 ng/mL
same,Average (% positive control),"[2]; IL-1β, 25 μM, positive control EN22 25 μM",0.555 % positive control
same,Average (% positive control),"[2]; IL-1β, 50 μM, positive control EN22 25 μM",4.074 % positive control
same,Average (% positive control),"[2]; IL-1β, 100 μM, positive control EN22 25 μM",22.016 % positive control
